PubChem BioAssay (NCI)
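Tested at 5 concentrations; 48 h exposure; 96-well plates; endpoints linearly interpolated, else capped at highest concentration. Definition used: TGI = concentration required for complete inhibition of growth.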

Key:
Experiment in all cases: DTP human tumour cell line panel, 48 h
786-0 renal = tested on: 786-0 renal
A498 renal = tested on: A498 renal
A549 NSCLC = tested on: A549 NSCLC
ACHN renal = tested on: ACHN renal
BT-549 breast = tested on: BT-549 breast
CAKI-1 renal = tested on: CAKI-1 renal
CCRF-CEM leukemia = tested on: CCRF-CEM leukemia
COLO 205 colon = tested on: COLO 205 colon
DU-145 prostate = tested on: DU-145 prostate
EKVX NSCLC = tested on: EKVX NSCLC
HCC-2998 colon = tested on: HCC-2998 colon
HCT-116 colon = tested on: HCT-116 colon
HCT-15 colon = tested on: HCT-15 colon
HOP-62 NSCLC = tested on: HOP-62 NSCLC
HOP-92 NSCLC = tested on: HOP-92 NSCLC
HS 578T breast = tested on: HS 578T breast
K-562 leukemia = tested on: K-562 leukemia
KM12 colon = tested on: KM12 colon
LOX IMVI melanoma = tested on: LOX IMVI melanoma
M14 melanoma = tested on: M14 melanoma
MALME-3M melanoma = tested on: MALME-3M melanoma
MCF7 breast = tested on: MCF7 breast
MDA-MB-231 breast = tested on: MDA-MB-231 breast
MDA-MB-435 = tested on: MDA-MB-435
MDA-N = tested on: MDA-N
MOLT-4 leukemia = tested on: MOLT-4 leukemia
NCI-H226 lung = tested on: NCI-H226 lung
NCI-H23 lung = tested on: NCI-H23 lung
NCI-H460 lung = tested on: NCI-H460 lung
NCI-H522 lung = tested on: NCI-H522 lung
NCI/ADR-RES ovarian = tested on: NCI/ADR-RES ovarian
OVCAR-3 ovarian = tested on: OVCAR-3 ovarian
OVCAR-4 ovarian = tested on: OVCAR-4 ovarian
OVCAR-5 ovarian = tested on: OVCAR-5 ovarian
OVCAR-8 ovarian = tested on: OVCAR-8 ovarian
PC-3 prostate = tested on: PC-3 prostate
RPMI-8226 leukemia = tested on: RPMI-8226 leukemia
RXF 393 renal = tested on: RXF 393 renal
SF-268 CNS = tested on: SF-268 CNS
SF-295 CNS = tested on: SF-295 CNS
SF-539 CNS = tested on: SF-539 CNS
SK-MEL-2 melanoma = tested on: SK-MEL-2 melanoma
SK-MEL-28 melanoma = tested on: SK-MEL-28 melanoma
SK-MEL-5 melanoma = tested on: SK-MEL-5 melanoma
SK-OV-3 ovarian = tested on: SK-OV-3 ovarian
SN12C renal = tested on: SN12C renal
SNB-19 CNS = tested on: SNB-19 CNS
SNB-75 CNS = tested on: SNB-75 CNS
SR leukemia = tested on: SR leukemia
SW-620 colon = tested on: SW-620 colon
T-47D breast = tested on: T-47D breast
TK-10 renal = tested on: TK-10 renal
U251 CNS = tested on: U251 CNS
UACC-257 melanoma = tested on: UACC-257 melanoma
UACC-62 melanoma = tested on: UACC-62 melanoma
UO-31 renal = tested on: UO-31 renal

SMILES: CCOC(=O)c1c(N2CCCC2)[nH]c(=O)c(C(c2ccc(OC)cc2)c2c(O)c(C(=O)OCC)c(N3CCCC3)[nH]c2=O)c1O
- TGI (786-0 renal): > 100 µM
- TGI (A498 renal): > 100 µM
- TGI (A549 NSCLC): > 100 µM
- TGI (ACHN renal): > 100 µM
- TGI (BT-549 breast): > 100 µM
- TGI (CAKI-1 renal): 71.1 µM
- TGI (CCRF-CEM leukemia): > 100 µM
- TGI (COLO 205 colon): > 100 µM
- TGI (DU-145 prostate): > 100 µM
- TGI (EKVX NSCLC): > 100 µM
- TGI (HCC-2998 colon): > 100 µM
- TGI (HCT-116 colon): > 100 µM
- TGI (HCT-15 colon): > 100 µM
- TGI (HOP-62 NSCLC): > 100 µM
- TGI (HOP-92 NSCLC): 58.6 µM
- TGI (HS 578T breast): > 100 µM
- TGI (K-562 leukemia): > 100 µM
- TGI (KM12 colon): > 100 µM
- TGI (LOX IMVI melanoma): > 100 µM
- TGI (M14 melanoma): > 100 µM
- TGI (MALME-3M melanoma): > 100 µM
- TGI (MCF7 breast): > 100 µM
- TGI (MDA-MB-231 breast): 88.1 µM
- TGI (MDA-MB-435): > 100 µM
- TGI (MDA-N): > 100 µM
- TGI (MOLT-4 leukemia): > 100 µM
- TGI (NCI-H226 lung): > 100 µM
- TGI (NCI-H23 lung): > 100 µM
- TGI (NCI-H460 lung): > 100 µM
- TGI (NCI-H522 lung): > 100 µM
- TGI (NCI/ADR-RES ovarian): > 100 µM
- TGI (OVCAR-3 ovarian): > 100 µM
- TGI (OVCAR-4 ovarian): > 100 µM
- TGI (OVCAR-5 ovarian): > 100 µM
- TGI (OVCAR-8 ovarian): > 100 µM
- TGI (PC-3 prostate): > 100 µM
- TGI (RPMI-8226 leukemia): > 100 µM
- TGI (RXF 393 renal): > 100 µM
- TGI (SF-268 CNS): > 100 µM
- TGI (SF-295 CNS): > 100 µM
- TGI (SF-539 CNS): > 100 µM
- TGI (SK-MEL-2 melanoma): 53.9 µM
- TGI (SK-MEL-28 melanoma): > 100 µM
- TGI (SK-MEL-5 melanoma): > 100 µM
- TGI (SK-OV-3 ovarian): > 100 µM
- TGI (SN12C renal): > 100 µM
- TGI (SNB-19 CNS): > 100 µM
- TGI (SNB-75 CNS): 69 µM
- TGI (SR leukemia): > 100 µM
- TGI (SW-620 colon): > 100 µM
- TGI (T-47D breast): > 100 µM
- TGI (TK-10 renal): > 100 µM
- TGI (U251 CNS): > 100 µM
- TGI (UACC-257 melanoma): > 100 µM
- TGI (UACC-62 melanoma): > 100 µM
- TGI (UO-31 renal): > 100 µM
